Where “and” joins values, the source holds several entries; their conditions need not be identical. Equal values may be shown once. Read-outs that look alike come from different tables or passages of the source.
Test: Healthy Japanese subjects, Part 2 (100, 200, 300 mg BID up-titration): PK of TAK-935 and M-I
Assay type: in vivo, human
Details: for AUlast/D (dose-normalized): mean (% CV); for AUC / Cmax / Tmax / Vd/F / AUC(0-t) / half-life: human, oral; for Vd/F: read-out: Vz/F; for half-life: read-out: t1/2z (terminal disposition phase half-life) (converted)
Protocol: This study consisted of 2 parts, and was a randomized, double-blind, placebo-controlled study to assess safety, tolerability, and PK and PD of TAK-935 when administered orally in healthy Japanese subjects.
TAK-935 or placebo was administered to the 9 subjects at the dose of 100 mg BID from Day 1 to Day 7, then 200 mg BID from Day 8 to Day 14, and finally 300 mg BID from Day 15 to Day 21, and safety, PK and PD were investigated. The planned dose levels of TAK-935 to be evaluated are outlined in Table 40a.
After the screening visit, eligible participants checked—in on Day-2. On Day 1, eligible participants were randomized 6:3 to TAK-935 or placebo in double-blinded fashion. No stratification variables were used for randomization. Study drug was administered every day by oral administration of multiple dosing with up-titration of TAK-935 to 9 subjects firstly at 100 mg BID from Day 1 to Day 7, then at 200 mg BID from Day 8 to Day 14, and finally at 300 mg BID from Day 15 to Day 21, successively. The subjects were discharged on Day 24. Intensive PK samplings were performed on Day 1, Day 7, Day 14 and Day 21.
Subjects received multiple oral doses of TAK-935 or placebo escalating from 100 mg BID, 200 mg BID, and then to 300 mg BID with 150 mL of water for 7 days per each dose level. For the morning dose, subjects were kept fasted for at least 8 hours before administration and up to 2 hours after administration. The evening dose was administered at any time between 8 hours and 12 hours after the morning dose, but prior to the evening meal except for Days 1, 7, 14, and 21. On Days 1, 7, 14, and 21, the evening dose was administered 12 hours after the morning dose and prior to the evening meal. • Identity of Study Drugs • Study drug refers to TAK-935 100 mg tablet and matching placebo. • Compound: Code name: TAK-935 • Dosage forms: TAK-935 100 mg tablets and matching placebo tablets were used in this study. The TAK-935 tablets and placebo tablets were yellow-red film-coated tablets for oral administration.
Blood samples for PK analysis of TAK-935 and its metabolites (M-I) were collected into blood collection tubes (vacutainer) containing the anticoagulant K2EDTA (Table 40e and Table 40f).
The PK parameters of TAK-935 and its metabolites (M-I) were determined from the concentration-time profiles for all evaluable subjects. Actual sampling times, rather than scheduled sampling times, were used in all computations involving sampling times. The following PK parameters were calculated from plasma concentrations of TAK-935 and its metabolites (M-I), unless otherwise specified: […]

[1] = Day 1 (100 mg BID), Part 2, Median
[2] = Day 1, TAK-935 100 mg BID, plasma, mean
[3] = Day 7 (100 mg BID), Part 2, Median
[4] = Day 7, TAK-935 100 mg BID, plasma, mean
[5] = Day 14 (200 mg BID), Part 2, Median
[6] = Day 14, TAK-935 200 mg BID, plasma, mean
[7] = Day 21 (300 mg BID), Part 2, Median
[8] = Day 21, TAK-935 300 mg BID, plasma, mean
[9] = plasma, 100 mg, Day 1, TAK-935 100 mg BID, plasma, mean
[10] = plasma, 100 mg, Day 7, TAK-935 100 mg BID, plasma, mean
[11] = plasma, 200 mg, Day 14, TAK-935 200 mg BID, plasma, mean
[12] = plasma, 300 mg, Day 21, TAK-935 300 mg BID, plasma, mean

With `O=C(c1cccnc1-c1ccncc1)N1CCC(O)(Cc2ccccc2)CC1` [soticlestat] the CL/F [1] was 501.5 L/H, the Lambda z [1] was 0.2135 h⁻¹ and the T1/2z [1] was 196.5 min. For the same compound, the CL/F [2] was 451.8 L/h, the Lambda z [2] was 0.2042 h⁻¹ and the CL/F [3] was 443.0 L/H. It also gave a Lambda z [3] of 0.2180 h⁻¹, a T1/2z [3] of 196.2 min and a CL/F [4] of 551.8 L/h. The Lambda z [4] was 0.2325 h⁻¹, the “AUlast/D (dose-normalized)” value (Day 7, TAK-935 100 mg BID, plasma) was 2.238 (49.3) h*ng/mL/mg and the CL/F [5] was 254.0 L/H. The Lambda z [5] was 0.2685 h⁻¹, the T1/2z [5] was 154.5 min and the CL/F [6] was 276.7 L/h and 276.4 L/h. For the same compound, the Lambda z [6] was 0.2775 h⁻¹, the “AUlast/D (dose-normalized)” value (Day 14, TAK-935 200 mg BID, plasma) was 4.298 (44.9) h*ng/mL/mg and the CL/F [7] was 147.0 L/H. The Lambda z [7] was 0.3095 h⁻¹, the T1/2z [7] was 134.4 min and the CL/F [8] was 158.0 L/h. For the same compound, the Lambda z [8] was 0.2708 h⁻¹, the “AUlast/D (dose-normalized)” value (Day 21, TAK-935 300 mg BID, plasma) was 6.725 (25.2) h*ng/mL/mg and the “Mean t1/2z” value (TAK-935, Day 1, 100 mg BID) was 359.3 min. For the same compound, the “Mean t1/2z” value (TAK-935, Day 7, 100 mg BID) was 217.8 min, the “Mean t1/2z” value (TAK-935, Day 14, 200 mg BID) was 157.2 min and the “Mean t1/2z” value (TAK-935, Day 21, 300 mg BID) was 175.6 min. For the same compound, the “accumulation of Cmax and AUC” value (TAK-935, multiple dose administration) was under 6%, the AUC (plasma, 100 mg, Day 1 (100 mg BID), Part 2, Geo Mean, read-out: AUC1ast) was 209 ng·h/mL and the AUC (plasma, 100 mg, Day 1 (100 mg BID), Part 2, Geo Mean, read-out: AUCtau) was 209 ng·h/mL. The Cmax (plasma, 100 mg, Day 1 (100 mg BID), Part 2, Geo Mean, read-out: Cmax) was 201 ng/mL, the Tmax (plasma, 100 mg, Day 1 (100 mg BID), Part 2, Mean, read-out: Tmax) was 52.5 min and the AUC (plasma, 100 mg, Day 1 (100 mg BID), Part 2, Median, read-out: AUC1ast) was 160 ng·h/mL. It also gave an AUC (plasma, 100 mg, Day 1 (100 mg BID), Part 2, Median, read-out: AUCtau) of 160 ng·h/mL, a Cmax (plasma, 100 mg, Day 1 (100 mg BID), Part 2, Median, read-out: Cmax) of 146 ng/mL and a Vd/F (plasma, 100 mg, Day 1 (100 mg BID), Part 2, Median) of 2450 L. The AUC(0-t) [9] was 232 ng·h/mL, the AUC (plasma, 100 mg, Day 1, TAK-935 100 mg BID, plasma, mean, read-out: AUCτ (AUC during a dosing interval)) was 232 ng·h/mL and the Cmax (plasma, 100 mg, Day 1, TAK-935 100 mg BID, plasma, mean, read-out: Cmax) was 255 ng/mL. For the same compound, the Vd/F [9] was 4100 L, the half-life [9] was 359 min and the Tmax (plasma, 100 mg, Day 1, TAK-935 100 mg BID, plasma, median, read-out: tmax) was 45 min. For the same compound, the AUC (plasma, 100 mg, Day 7 (100 mg BID), Part 2, Geo Mean, read-out: AUC1ast) was 201 ng·h/mL, the AUC (plasma, 100 mg, Day 7 (100 mg BID), Part 2, Geo Mean, read-out: AUCtau) was 202 ng·h/mL and the Cmax (plasma, 100 mg, Day 7 (100 mg BID), Part 2, Geo Mean, read-out: Cmax) was 146 ng/mL. For the same compound, the Tmax (plasma, 100 mg, Day 7 (100 mg BID), Part 2, Mean, read-out: Tmax) was 50 min, the AUC (plasma, 100 mg, Day 7 (100 mg BID), Part 2, Median, read-out: AUC1ast) was 226 ng·h/mL and the AUC (plasma, 100 mg, Day 7 (100 mg BID), Part 2, Median, read-out: AUCtau) was 226 ng·h/mL. The Cmax (plasma, 100 mg, Day 7 (100 mg BID), Part 2, Median, read-out: Cmax) was 148 ng/mL, the Vd/F (plasma, 100 mg, Day 7 (100 mg BID), Part 2, Median) was 2600 L and the AUC(0-t) [10] was 224 ng·h/mL. For the same compound, the AUC (plasma, 100 mg, Day 7, TAK-935 100 mg BID, plasma, mean, read-out: AUCτ (AUC during a dosing interval)) was 224 ng·h/mL, the Cmax (plasma, 100 mg, Day 7, TAK-935 100 mg BID, plasma, mean, read-out: Cmax) was 204 ng/mL and the Vd/F [10] was 2940 L. For the same compound, the half-life [10] was 218 min, the Tmax (plasma, 100 mg, Day 7, TAK-935 100 mg BID, plasma, median, read-out: tmax) was 30 min and the Tmax (plasma, 100 mg, TAK-935, Day 1, 100 mg BID, read-out: Median Tmax) was 45 min. For the same compound, the AUC (plasma, 100 mg, TAK-935, Day 1, first dose 100 mg BID, read-out: Mean AUCτ) was 232 ng·h/mL, the Cmax (plasma, 100 mg, TAK-935, Day 1, first dose 100 mg BID, read-out: mean Cmax) was 255 ng/mL and the AUC (plasma, 100 mg, TAK-935, Day 7, 100 mg BID, read-out: Mean AUCτ) was 224 ng·h/mL. It also gave a Cmax (plasma, 100 mg, TAK-935, Day 7, 100 mg BID, read-out: mean Cmax) of 204 ng/mL, an AUC (plasma, 200 mg, Day 14 (200 mg BID), Part 2, Geo Mean, read-out: AUC1ast) of 788 ng·h/mL and an AUC (plasma, 200 mg, Day 14 (200 mg BID), Part 2, Geo Mean, read-out: AUCtau) of 789 ng·h/mL. The Cmax (plasma, 200 mg, Day 14 (200 mg BID), Part 2, Geo Mean, read-out: Cmax) was 836 ng/mL, the Tmax (plasma, 200 mg, Day 14 (200 mg BID), Part 2, Mean, read-out: Tmax) was 40 min and the AUC (plasma, 200 mg, Day 14 (200 mg BID), Part 2, Median, read-out: AUC1ast) was 794 ng·h/mL. The AUC (plasma, 200 mg, Day 14 (200 mg BID), Part 2, Median, read-out: AUCtau) was 794 ng·h/mL, the Cmax (plasma, 200 mg, Day 14 (200 mg BID), Part 2, Median, read-out: Cmax) was 1030 ng/mL and the Vd/F (plasma, 200 mg, Day 14 (200 mg BID), Part 2, Median) was 1030 L. The AUC(0-t) [11] was 860 ng·h/mL, the AUC (plasma, 200 mg, Day 14, TAK-935 200 mg BID, plasma, mean, read-out: AUCτ (AUC during a dosing interval)) was 861 ng·h/mL and the Cmax (plasma, 200 mg, Day 14, TAK-935 200 mg BID, plasma, mean, read-out: Cmax) was 980 ng/mL. The Vd/F [11] was 1090 L, the half-life [11] was 157 min and the Tmax (plasma, 200 mg, Day 14, TAK-935 200 mg BID, plasma, median, read-out: tmax) was 30 min. The AUC (plasma, 200 mg, TAK-935, Day 14, 200 mg BID, read-out: Mean AUCτ) was 861 ng·h/mL, the Cmax (plasma, 200 mg, TAK-935, Day 14, 200 mg BID, read-out: mean Cmax) was 980 ng/mL and the AUC (plasma, 300 mg, Day 21 (300 mg BID), Part 2, Geo Mean, read-out: AUC1ast) was 1960 ng·h/mL. It also gave an AUC (plasma, 300 mg, Day 21 (300 mg BID), Part 2, Geo Mean, read-out: AUCtau) of 1960 ng·h/mL, a Cmax (plasma, 300 mg, Day 21 (300 mg BID), Part 2, Geo Mean, read-out: Cmax) of 1940 ng/mL and a Tmax (plasma, 300 mg, Day 21 (300 mg BID), Part 2, Mean, read-out: Tmax) of 32.5 min. It also gave an AUC (plasma, 300 mg, Day 21 (300 mg BID), Part 2, Median, read-out: AUC1ast) of 2040 ng·h/mL, an AUC (plasma, 300 mg, Day 21 (300 mg BID), Part 2, Median, read-out: AUCtau) of 2040 ng·h/mL and a Cmax (plasma, 300 mg, Day 21 (300 mg BID), Part 2, Median, read-out: Cmax) of 1600 ng/mL. It also gave a Vd/F (plasma, 300 mg, Day 21 (300 mg BID), Part 2, Median) of 620 L, an AUC(0-t) [12] of 2020 ng·h/mL and an AUC (plasma, 300 mg, Day 21, TAK-935 300 mg BID, plasma, mean, read-out: AUCτ (AUC during a dosing interval)) of 2020 ng·h/mL. For the same compound, the Cmax (plasma, 300 mg, Day 21, TAK-935 300 mg BID, plasma, mean, read-out: Cmax) was 2060 ng/mL, the Vd/F [12] was 640 L and the half-life [12] was 176 min. For the same compound, the Tmax (plasma, 300 mg, Day 21, TAK-935 300 mg BID, plasma, median, read-out: tmax) was 30 min, the AUC (plasma, 300 mg, TAK-935, Day 21, 300 mg BID, read-out: Mean AUCτ) was 2020 ng·h/mL and the Cmax (plasma, 300 mg, TAK-935, Day 21, 300 mg BID, read-out: mean Cmax) was 2060 ng/mL. The Tmax (plasma, TAK-935, Day 7, Day 14 and Day 21, read-out: Median Tmax) was 30 min.
